Data as given in PubChem BioAssay AID1919015 (Molecular Pharmacology Branch, DTP, NCI, 2023).

Tested on: OVCAR-5 complex spheroids with HUVEC/MSC, viability, % test/control
Assay: Anticancer human tumor OVCAR-5 cell line growth inhibition [AhR];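 further: spheroids exposed to compounds for 7 days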;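 on viability, T/C: 100% = DMSO vehicle control wells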
Settings: for IC50: curve of first compound; for viability, T/C: stronger effect = lower value
From the text: Multicellular complex tumor spheroid response to aryl hydrocarbon receptor antagonists in combination with a variety of drugs and investigational agents in selected tumor cell lines
The current study was undertaken to assess response to aryl hydrocarbon receptor antagonists in combination with standard-of-care drugs and investigational agents in solid tumor complex spheroid models. Complex spheroids include a stromal component modeled by human endothelial cells (HUVEC) and fibroblasts modeled by human mesenchymal stem cells (MSCs). The concentration ranges selected for each drug and investigational agent were based upon clinically achievable concentrations if the clinical Cmax of the agent was known.
Compounds. The drugs and investigational agents: BAY 2416964 (NSC825713), GNF351 (NSC835774), CH-223191 (NSC835775), CPI-455 (NSC825282), aza-TdCyd (NSC777586), decitabine (NSC127716), belinostat (NSC758774), entinostat (NSC756642), pevonedistat (NSC761192), tazemetostat (NSC777109), talazoparib (NSC765396), olaparib (NSC753686), selinexor (NSC780203), nedisertib (M3814, NSC802822), bortezomib (NSC756655), venetoclax (NSC766270), doxorubicin (NSC123127), elimusertib (BAY189344, NSC800525), ceralasertib (AZD6738, NSC777638), TAK-243 (NSC785004), alisertib (NSC759677), etoposide (NSC141540), topotecan (NSC609699), eribulin (NSC707389), gemcitabine (NSC613327), carboplatin (NSC241240), cisplatin (NSC119875), and SN-38 (NSC673596) were obtained from the National Cancer Institute (NCI) Developmental Therapeutics Program Chemical Repository (32). The FDA-approved anticancer drug set is available from the Developmental Therapeutics Program at https://dtp.cancer.gov/organization/dscb/obtaining/available plates.htm. […] The stock solutions were prepared in dimethyl sulfoxide (DMSO, Sigma-Aldrich, St. Louis, MO, cat. D2650), except for the platinum compounds which were prepared in saline (Quality Biological, Gaithersburg, MD, cat. 114-055-101), at 800-fold the tested concentration and stored at -70 degrees C prior to their use. All drugs and investigational agents were tested over a range starting from a high concentration at or near the clinical Cmax and decreasing in half-log increments. If the clinical Cmax for an agent had not been determined, the highest concentration tested was 10 microM (Table 1).
Cell Culture. All cells were maintained in an incubator at 37 degrees C and 5% CO2 with 95% humidity. The PDC lines were cultured according to standard operating procedures established by the NCI PDMR (https://pdmr.cancer.gov). Briefly, all PDCs were thawed and cultured in Matrigel-coated flasks prepared with a working solution of 1X Ham's F-12 nutrient mix, without supplementation (Invitrogen, Waltham, MA, cat. 11765054), 100 U/mL penicillin-streptomycin (Invitrogen, cat. 15140122), and 2.5% Matrigel (Corning Inc., Corning, NY, cat. 354248) for the first three passages. All PDCs were cultured in complete DMEM/F-12 media containing advanced DMEM/F-12 (Invitrogen, cat. 12634028), 4.9% defined fetal bovine serum, heat inactivated (HyClone Laboratories Inc., Logan, UT, cat. SH30070.03HI), 389 ng/mL hydrocortisone (Sigma-Aldrich, cat. H4001), 9.7 ng/mL human EGF recombinant protein (Invitrogen, cat. PHG0313), 23.4 microg/mL adenine (Sigma-Aldrich, cat. A2786), 97.3 U/mL penicillin-streptomycin (Invitrogen, cat. 15140122), 1.9 mM L-glutamine (Invitrogen, cat. 25030081), and 9.7 microM Y-27632 dihydrochloride (Tocris Bioscience, Bristol, United Kingdom, cat. 1254). The PDCs were cultured in complete DMEM/F12 media without 10 microM Y-27632 dihydrochloride for at least two passages prior to the screen. The established cell lines NCI-H1341 and […] were cultured in DMEM/F-12, HEPES (Invitrogen, cat. 11330032), 5% defined fetal bovine serum (HyClone Laboratories Inc., cat. SH30070.03), ITS premix universal culture supplement [insulin (5 microg/mL), transferrin (5 microg/mL), and selenious acid (5 ng/mL)] […]

[1] = second compound 0.1 µM, first compound 0.0316 µM
[2] = second compound 0.1 µM, first compound 0.1 µM
[3] = second compound 0.1 µM, first compound 0.316 µM
[4] = second compound 0.1 µM, first compound 1 µM
[5] = second compound 0.1 µM, first compound 3.16 µM
[6] = second compound 0.1 µM, first compound 10 µM
[7] = second compound 0.316 µM, first compound 0.0316 µM
[8] = second compound 0.316 µM, first compound 0.1 µM
[9] = second compound 0.316 µM, first compound 0.316 µM
[10] = second compound 0.316 µM, first compound 1 µM
[11] = second compound 0.316 µM, first compound 3.16 µM
[12] = second compound 0.316 µM, first compound 10 µM
[13] = second compound 1 µM, first compound 0.0316 µM
[14] = second compound 1 µM, first compound 0.1 µM
[15] = second compound 1 µM, first compound 0.316 µM
[16] = second compound 1 µM, first compound 1 µM
[17] = second compound 1 µM, first compound 3.16 µM
[18] = second compound 1 µM, first compound 10 µM
[19] = second compound 3.16 µM, first compound 0.0316 µM
[20] = second compound 3.16 µM, first compound 0.1 µM
[21] = second compound 3.16 µM, first compound 0.316 µM
[22] = second compound 3.16 µM, first compound 1 µM
[23] = second compound 3.16 µM, first compound 3.16 µM
[24] = second compound 3.16 µM, first compound 10 µM
[25] = second compound 10 µM, first compound 0.0316 µM
[26] = second compound 10 µM, first compound 0.1 µM
[27] = second compound 10 µM, first compound 0.316 µM
[28] = second compound 10 µM, first compound 1 µM
[29] = second compound 10 µM, first compound 3.16 µM
[30] = second compound 10 µM, first compound 10 µM

Row | Structure (SMILES) | IC50 (second compound 0.1 µM) [nM] | IC50 (second compound 0.316 µM) [nM] | IC50 (second compound 1 µM) [nM] | IC50 (second compound 3.16 µM) [nM] | IC50 (second compound 10 µM) [nM] | viability, T/C [1] [%] | viability, T/C [2] [%] | viability, T/C [3] [%] | viability, T/C [4] [%] | viability, T/C [5] [%] | viability, T/C [6] [%] | viability, T/C [7] [%] | viability, T/C [8] [%] | viability, T/C [9] [%] | viability, T/C [13] [%] | viability, T/C [14] [%] | viability, T/C [19] [%] | viability, T/C [20] [%] | viability, T/C [25] [%] | viability, T/C [26] [%] | also measured
1 | COc1cc(Nc2ncc3c(n2)-c2ccc(Cl)cc2C(c2c(F)cccc2OC)=NC3)ccc1C(=O)O + CC(CO)NC(=O)c1cc(-c2ccc(Cl)cc2)nn(-c2cnn(C)c2)c1=O | 1820 | 2430 | 3710 | 1760 | 8330 | 88.6 | 84.8 | 62.4 | 55.9 | 48.1 | 43.3 | 87.3 | 84.4 | 65.7 | 92.1 | 87 | 79.4 | 81.8 | 75.5 | 72.8 | viability, T/C [10]: 60%; viability, T/C [11]: 47.9%; viability, T/C [12]: 38.7%; viability, T/C [15]: 69.5%; viability, T/C [16]: 60.1%; viability, T/C [17]: 54%; viability, T/C [18]: 41.8%; viability, T/C [21]: 65.4%; viability, T/C [22]: 55%; viability, T/C [23]: 46.7%; viability, T/C [24]: 42.4%; viability, T/C [27]: 62.9%; viability, T/C [28]: 59%; viability, T/C [29]: 51.8%; viability, T/C [30]: 50.4%
2 | Cn1ncnc1C1c2n[nH]c(=O)c3cc(F)cc(c23)NC1c1ccc(F)cc1 (stereo not given) + CC(CO)NC(=O)c1cc(-c2ccc(Cl)cc2)nn(-c2cnn(C)c2)c1=O | > 100 | > 100 | > 100 | > 100 | > 100 | 104 | 101 | – | – | – | – | 105 | 99.7 | – | 112 | 108 | 101 | 100 | 93.5 | 94.6 | viability, T/C (second compound 0.1 µM, first compound 0.000316 µM): 104%; viability, T/C (second compound 0.1 µM, first compound 0.001 µM): 105%; viability, T/C (second compound 0.1 µM, first compound 0.00316 µM): 105%; viability, T/C (second compound 0.1 µM, first compound 0.01 µM): 105%; viability, T/C (second compound 0.316 µM, first compound 0.000316 µM): 104%; viability, T/C (second compound 0.316 µM, first compound 0.001 µM): 110%; viability, T/C (second compound 0.316 µM, first compound 0.00316 µM): 106%; viability, T/C (second compound 0.316 µM, first compound 0.01 µM): 107%; viability, T/C (second compound 1 µM, first compound 0.000316 µM): 112%; viability, T/C (second compound 1 µM, first compound 0.001 µM): 114%; viability, T/C (second compound 1 µM, first compound 0.00316 µM): 112%; viability, T/C (second compound 1 µM, first compound 0.01 µM): 108%; viability, T/C (second compound 3.16 µM, first compound 0.000316 µM): 106%; viability, T/C (second compound 3.16 µM, first compound 0.001 µM): 103%; viability, T/C (second compound 3.16 µM, first compound 0.00316 µM): 103%; viability, T/C (second compound 3.16 µM, first compound 0.01 µM): 96.2%; viability, T/C (second compound 10 µM, first compound 0.000316 µM): 97.6%; viability, T/C (second compound 10 µM, first compound 0.001 µM): 97.8%; viability, T/C (second compound 10 µM, first compound 0.00316 µM): 99.5%; viability, T/C (second compound 10 µM, first compound 0.01 µM): 95.5%
3 | NS(=O)(=O)OCC1CC(n2ccc3c(NC4CCc5ccccc54)ncnc32)CC1O (stereo not given) + CC(CO)NC(=O)c1cc(-c2ccc(Cl)cc2)nn(-c2cnn(C)c2)c1=O | 196 | 159 | 169 | 174 | 204 | 92.9 | 66.1 | 40.3 | 16.1 | 13 | 11.3 | 79.5 | 58.9 | 37.1 | 85.1 | 61 | 72.1 | 65.3 | 75.7 | 65.7 | viability, T/C [10]: 14.8%; viability, T/C [11]: 11.2%; viability, T/C [12]: 11.5%; viability, T/C [15]: 37.6%; viability, T/C [16]: 14.9%; viability, T/C [17]: 11.5%; viability, T/C [18]: 11.6%; viability, T/C [21]: 33.5%; viability, T/C [22]: 13.7%; viability, T/C [23]: 11.3%; viability, T/C [24]: 11.2%; viability, T/C [27]: 40.7%; viability, T/C [28]: 15.7%; viability, T/C [29]: 12.6%; viability, T/C [30]: 12.6%
4 | O=C(C=Cc1cccc(S(=O)(=O)Nc2ccccc2)c1)NO + CC(CO)NC(=O)c1cc(-c2ccc(Cl)cc2)nn(-c2cnn(C)c2)c1=O | 1050 | 875 | 995 | 819 | 928 | 99.8 | 95.7 | 76 | 52.2 | 23.3 | 6.15 | 101 | 95 | 76.4 | 108 | 101 | 103 | 91.9 | 89.4 | 84.2 | viability, T/C [10]: 45.9%; viability, T/C [11]: 21%; viability, T/C [12]: 6.73%; viability, T/C [15]: 79.1%; viability, T/C [16]: 50%; viability, T/C [17]: 22.3%; viability, T/C [18]: 5.69%; viability, T/C [21]: 72.4%; viability, T/C [22]: 45.7%; viability, T/C [23]: 19.9%; viability, T/C [24]: 5.14%; viability, T/C [27]: 72.4%; viability, T/C [28]: 49.3%; viability, T/C [29]: 19.8%; viability, T/C [30]: 4.82%
